Experimental data published in PMC7699649 (Communications Biology, 2020).
No end group written: not given here.

How the values were obtained:
[1] = tested on: Acinetobacter baumannii ATCC 17978; details: Supplementary Table 3; medium not stated; at least three biological replicates
Protocol: (§1) The antibacterial activity of the peptides was assessed through a modified twofold broth microdilution assay with modal MICs generated from at least three biological replicate experiments[20],[25]. The method broadly followed EUCAST methodology, with non-cation-adjusted Mueller Hinton or RPMI replacing cation-adjusted Mueller Hinton. Peptides and antibiotics were diluted in a twofold dilution in media down a 96 well plate. Bacteria were then added, back-diluted from an overnight culture, at a starting concentration of 5 × 10^5 CFU/ml. Plates were incubated, static at 37 C, for 20 h and the OD600 was determined using a Clariostar plate reader (BMG Labtech). […] Synergy was measured using standard microdilution checkerboard assays under the same conditions as the MICs[54]. Twofold dilution series of each peptide or antibiotic were prepared in separate 96 well plates and then combined into one before addition of bacteria. The growth/no growth interface was determined using the same definition as the MIC. The fractional inhibitory concentration was calculated from the most synergistic well on the plate for three independent repeats, and presented as the average +/− standard deviation. FIC is calculated as (MIC of compound A in combination with B/MIC of compound A alone) + (MIC of compound B in combination with A/MIC of compound B alone). MICs were determined on the same plates as the FICs to increase reproducibility.

[2] = tested on: Acinetobacter baumannii AYE; details: Supplementary Table 3; medium not stated; at least three biological replicates
Protocol: as §1

[3] = tested on: EMR Staphylococcus aureus-15 NCTC 13616; details: Supplementary Table 3; medium not stated; at least three biological replicates
Protocol: as §1

[4] = tested on: EMR Staphylococcus aureus-16 NCTC 13277; details: Supplementary Table 3; medium not stated; at least three biological replicates
Protocol: as §1

[5] = tested on: Escherichia coli NCTC 12923; details: Supplementary Table 3; medium not stated; at least three biological replicates
Protocol: as §1

Klebsiella pneumoniae M6 = details: Supplementary Table 3; medium not stated; at least three biological replicates
Protocol: as §1

[6] = tested on: Klebsiella pneumoniae NCTC 13368; details: Supplementary Table 3; medium not stated; at least three biological replicates
Protocol: as §1

[7] = tested on: MS Staphylococcus aureus ATCC 9144; details: Supplementary Table 3; medium not stated; at least three biological replicates
Protocol: as §1

[8] = tested on: Pseudomonas aeruginosa NCTC 13437; details: Supplementary Table 3; medium not stated; at least three biological replicates
Protocol: as §1

[9] = tested on: Pseudomonas aeruginosa PAO1; details: Supplementary Table 3; medium not stated; at least three biological replicates
Protocol: as §1

[10] = tested on: VR Enterococcus faecium NCTC 12204; details: Supplementary Table 3; medium not stated; at least three biological replicates
Protocol: as §1

[11] = tested on: VS Enterococcus faecalis NCTC 775; details: Supplementary Table 3; medium not stated; at least three biological replicates
Protocol: as §1

human red blood cells = experiment: Haemolysis assay; type: cell-based; details: human red blood cells in PBS, 1 h 37 °C, OD550, relative to 0.1% Triton-X-100; for concentration at which 10% haemolysis is achieved: three biological replicates
Protocol: Haemolysis was tested by incubating titrations of AMPs in PBS with freshly collected human red blood cells for 1 h at 37 °C. Control wells were treated with 0.1% Triton-X-100 to ensure complete lysis, or PBS-only to represent no lysis. Samples were spun down to remove non-lysed cells and the OD550 of the supernatant was measured using a Clariostar plate reader. The percentage of haemolysis was calculated as % haemolysis = (AP − AB)/(AC − AB) × 100, where AP is the absorbance value for a known peptide concentration, AC is the absorbance of the 0.1% Triton-X-100 control, AB is the absorbance of the PBS control. Data presented are averages and standard error from three biological replicate experiments.

Row | Compound | Antibiogram, antibiotic concentration (MIC) [1] [µg/mL] | Antibiogram, antibiotic concentration (MIC) [2] [µg/mL] | Antibiogram, antibiotic concentration (MIC) [3] [µg/mL] | Antibiogram, antibiotic concentration (MIC) [4] [µg/mL] | Antibiogram, antibiotic concentration (MIC) [5] [µg/mL] | Antibiogram, antibiotic concentration (MIC) (Klebsiella pneumoniae M6) [µg/mL] | Antibiogram, antibiotic concentration (MIC) [6] [µg/mL] | Antibiogram, antibiotic concentration (MIC) [7] [µg/mL] | Antibiogram, antibiotic concentration (MIC) [8] [µg/mL] | Antibiogram, antibiotic concentration (MIC) [9] [µg/mL] | Antibiogram, antibiotic concentration (MIC) [10] [µg/mL] | Antibiogram, antibiotic concentration (MIC) [11] [µg/mL] | haemolysis at the highest concentration tested 400 µg/ml (human red blood cells) | concentration at which 10% haemolysis is achieved (human red blood cells) [µg/mL]
1 | NC[C@H]1O[C@H](O[C@H]2[C@H](O)[C@@H](O[C@H]3O[C@H](CO)[C@@H](O)[C@H](N)[C@H]3O)[C@H](N)C[C@@H]2N)[C@H](N)C[C@@H]1O [Tobramycin] | 4 | 64 | 0.5 | 0.25 | 16 | 8 | 64 | 0.25 to 0.5 | 64 | 2 | 64 | 4 |  | 
2 | GWGSFFKKAAHVGKHVGKAALTHYL-NH2 [Pleurocidin, reference compound] |  |  |  |  |  |  |  |  |  |  |  |  | 50% | 120
3 | CC(C)(O/N=C(\C(=O)N[C@@H]1C(=O)N2C(C(=O)[O-])=C(C[n+]3ccccc3)CS[C@H]12)c1csc(N)n1)C(=O)O [Ceftazidime] | < 0.5 | > 128 | 128 | 8 |  | < 0.5 | 512 | 16 | > 128 | 1 | > 128 | 32 |  | 
4 | CNC(C)C1CCC(N)C(OC2C(N)CC(N)C(OC3OCC(C)(O)C(NC)C3O)C2O)O1 (centres unmarked) [Gentamicin] | 0.5 | > 512 | 0.25 | 0.25 | 1 | 0.25 | 4 | 0.25 | 256 | 4 | 4 | 4 |  | 
5 | O=C(O)c1cn(C2CC2)c2cc(N3CCNCC3)c(F)cc2c1=O [Ciprofloxacin] | 0.5 | 128 | 64 | 128 | ≤ 0.125 | < 0.5 | 0.5 | 1 | 64 | 0.5 | 1 | 2 |  | 
6 | Colistin | 1 | 1 | > 128 |  | 0.0625 | 2 | 1 |  | 4 | 2 |  |  |  | 
7 | GWGSFFRRAAHVGRHVGRAALTHYL-NH2 [Pleurocidin-KR] |  |  |  |  |  |  |  |  |  |  |  |  |  | 192
8 | GWGSFFKKAAHAGKHAGKAALTHYL-NH2 [Pleurocidin-VA] |  |  |  |  |  |  |  |  |  |  |  |  | Neither pleurocidin-VA nor D-pleurocidin-VA induce detectable haemolysis | 
